Assay results reported in patent publication US10772855B2, “N-bromotaurine solutions and emulsions against abnormal cells” (NASCO AD BIOTECHNOLOGY LABORATORY, priority 2016, dated 2020).
Entries after “also recorded” stand apart in the source; their conditions may differ.

Assays:
[1] = test system: (Normal fibroblast - control); experiment: Proliferation assay (cellular viability, crystal violet, OD 595 nm), normal fibroblast control; assay type: cell-based; settings: human
Excerpt: (§1) Following, a more detailed description of the enhancement of the anti-proliferative effect obtained with the methodology of this invention, having the aqueous solutions of NBrT/taurine, is given. […]
(§2) The calculation of the increase of anti-proliferative activity in cancer cells with the methodology of this invention was made in comparison to the rate […] The effect of NBrT/taurine solutions with latter addition of NaOBr, namely the solutions of this present invention were compared with effect obtained by NBrT solutions without a surplus of Taurine and without latter addition of NaOBr using the same cell lines in the same experiment. […] The anti-proliferative effect on all cell cultures was measured as a means of cellular viability by Optical Density at 595 nm using a Tecan reader using a crystal violet reagent. All experiments were performed in triplicate and mean values were used.

[2] = test system: HLF-1 (Normal fibroblast - control); experiment: as above; assay type: cell-based; settings: NBrT concentration range of 12.5-40 μM; surplus of taurine, later addition of NaOBr at 24, 48 and 72 hours
Excerpt: as §1, §2

[3] = test system: hyper-proliferating cell lines A549, PC3, HeLa, MDA-MB 231, HepG2; experiment: Proliferation assays, statements for all cancer cell lines together; assay type: cell-based; settings: for enhancement of anti-proliferative effect against cancer cells as single parameter in NBrT solutions: surplus of taurine or later addition of NaOBr alone, NBrT 62.5-250 μM
Experimental: (§3) The same accounts by later addition of Taurine to a 200 mM concentration in a 40 mM NBrT solution to cause enhancement of anti-proliferative effect against cancer cells. The enhancement of anti-proliferative effect against cancer cells is achieved by the use of the surplus of taurine present in the solution that is thereafter reacting with a later addition of 40 μM NaOBr solution at 24, 48 and 72 hours of in vitro incubation of cancer cells. That is, with a 1% addition of 40 μM NaOBr solution in total volume of cell cultures at 24, 48 and 72 hours, i.e. 0.4 μM NaOBr, favorable circumstances for fresh NBrT synthesis are made in order to contribute to reaction against abnormally hyper-proliferative cells. […] Normally proliferating cell lines show an evident decrease in their proliferative ability when grown at concentrations of NBrT above 250 μM. It has to be noted that all cells tested are not affected in their proliferation rate when growing in the same medium containing 0.4-40 μM NaOBr. In general, in order to achieve acceleration of anti-proliferative effect on hyper-proliferating cells without causing damage on proliferation of normal cells the concentration of NBrT in solution is 1:5 the concentration of estimated Taurine and the addition of NaOBr solution at latter stages of treatment is 1:100 the concentration of NBrT and 1:500 the concentration of Taurine.
Following, a more detailed description of the enhancement of the anti-proliferative effect obtained with the methodology of this invention, having the aqueous solutions of NBrT/taurine, is given. Stock solution of 4 mM NBrT/20 mM taurine was diluted in final concentrations of 62.5, 125, 250 μM NBrT and 312.5, 625, 1250 μM taurine, respectively, in culture medium DMEM/10% FBS.
During cell cultivation NaOBr solutions of […] were added in 1:100 dilution to the corresponded 62.5, 125, and 250 μM NBrT and 312.5, 625, 1250 μM taurine every 24/48/72 hours. The calculation of the increase of anti-proliferative activity in cancer cells with the methodology of this invention was made in comparison to the rate of anti-proliferative effect that solutions of NBrT exert in final concentrations of 62.5, 125 and 250 μM in the same cultivation medium. The effect of NBrT/taurine solutions with latter addition of NaOBr, namely the solutions of this present invention were compared with effect obtained by NBrT solutions without a surplus of Taurine and without latter addition of NaOBr using the same cell lines in the same experiment. […] The anti-proliferative effect on all cell cultures was measured as a means of cellular viability by Optical Density at 595 nm using a Tecan reader using a crystal violet reagent. All experiments were performed in triplicate and mean values were used.

[4] = test system: cancer cell lines A549, PC3, MDA-MB 231, HeLa, HepG2; experiment: Anti-proliferative effect of stored versus fresh NBrT aqueous solutions; assay type: cell-based; settings: aqueous solution in double distilled water or PBS left for 15, 30 or 45 days at room temperature or 4° C.; all cancer cell lines tested
Experimental: During studies on NBrT anti-proliferative effect against cancer cells, aqueous solutions of NBrT in double distilled water or phosphate buffered saline where left for 15, 30 and 45 days in room temperature or at 4° C. The anti-proliferative effect of NBrT solutions was decreased by 30-40% each time a respective solution was tested that was left for 15, 30 or 45 days since time of production in comparison with the results of the anti-proliferative effect obtained from the same but fresh solution of NBrT, tested at the same day of production. The same results were noticed in all cancer cell lines tested (A549, PC3, MDA-MB 231, HeLa, and HepG2). The loss of anti-proliferative effect of the aqueous solutions of NBrT (15, 30, 45 days) was tightly connected with the loss of corresponding absorbance at 286 nm having as a reference that a solution of 10 mM NBrT has a peak at 430M^−1 cm^−1 at day of production.

[5] = test system: skin of patients with acne vulgaris; settings: NBrT up to 5 mM applied onto the skin of patients; cited from earlier work
[6] = test system: Prostaglandin E2 production; settings: via Heme Oxygenase; cited from earlier work
[7] = test system: fibroblast-like synoviocytes; settings: fibroblast-like synoviocytes that participate in rheumatoid arthritis; cited from earlier work
purulent leg ulcers = settings: cited from earlier work
all cells tested = experiment: Proliferation rate of cells in medium containing NaOBr alone; assay type: cell-based
Experimental: as §3, with “Taurine. […]” for “Taurine.”

O=S(=O)(O)CCNBr [NBrT, N-bromotaurine]
NBrT concentration at which normally proliferating cell lines show an evident decrease in their proliferative ability [1]: above 250 μM
effect on normally proliferating fibroblast cell line HFL-1 [2]: literally no effect
anti-proliferative effect on all hyper-proliferating cell lines tested ([3]; surplus of taurine and later addition of NaOBr at 24, 48 and 72 hours): accelerating anti-proliferative effect
decrease of anti-proliferative effect in comparison with the same but fresh solution [4]: 30-40%
side effects on skin [5]: literally no side effect
Prostaglandin E2 production (eicosanoid PGE2) [6]: inhibition of Prostaglandin E2 production
IL6 and inflammatory mediators (PEG2) [7]: inhibit

O=S(=O)(O)CCNCl [NCT, N-Chlorotaurine]
tolerability and toxicity (purulent leg ulcers; applied locally onto patient's wounds): increased tolerability, low toxicity
efficacy against purulent leg ulcers (purulent leg ulcers; phase II clinical study): significant results against purulent leg ulcers

[Na+].[O-]Br [NaOBr]
enhancement of anti-proliferative effect against cancer cells as single parameter in NBrT solutions [3]: do not exert any enhancement; also recorded: do not confer enhancement
proliferation rate of all cells tested (all cells tested; medium containing 0.4-4 μM NaOBr): not affected
proliferation rate of all cells tested (all cells tested; medium containing 0.4-40 μM NaOBr): not affected

NCCS(=O)(=O)O [Taurine]
enhancement of anti-proliferative effect against cancer cells as single parameter in NBrT solutions [3]: do not exert any enhancement
enhancement of anti-proliferative effect against cancer cells as single parameter in NBrT solutions ([3]; listed as taurine): do not confer enhancement
